Assay results published in patent US20240252652A1, “PROTEINS HAVING UNNATURAL AMINO ACIDS AND METHODS OF USE” (The Regents of the University of California, priority 2021, published 2024).
Values belong to the molecule of their own block, whether it stands above or below them.

Tests used:
Siglec-7v with azido-GD3 = target: T1, Siglec-7v with azido-GD3 (Homo sapiens, UniProt Q9Y286, C41S); experiment: Small molecule mediated Siglec-7v cross-linking in vitro (Western blot); assay type: biochemical; conditions: for cross-linking of Siglec-7v with azido-GD3 (biotin band slightly above Siglec-7v): 60 μM Siglec-7v, 2 mM azido-GD3, 0.3 mM cross-linker, room temperature, UV for NHQM, HoQM
T1 construct: made in house; host or cells: E. coli BL21(DE3)
T1 sequence (Q9Y286 with tags, fused parts or gaps C41S): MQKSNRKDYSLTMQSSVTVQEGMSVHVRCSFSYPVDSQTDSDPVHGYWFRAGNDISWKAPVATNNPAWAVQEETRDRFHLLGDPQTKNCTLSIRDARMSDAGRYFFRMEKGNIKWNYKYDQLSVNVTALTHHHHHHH
Method: We then investigated if the various function groups synthesized onto the cross-linkers (FIG. 1B) could achieve protein-glycan cross-linking using Siglec-7v and azido-GD3 as the model system. Siglec-7v (60 μM) was incubated with 2 mM azido-GD3 for 1 h at room temperature, followed by the addition of different cross-linkers to the solution. For samples treated with cross-linker NHQM or HoQM, UV light was applied to activate the cross-linker. Alkyne-biotin was subsequently clicked with azido-GD3 in the samples, and the biotin signal was detected with Western blot using streptavidin-HRP (FIG. 1E). […] (Ref. 20). The results here indicate that NHSF can be applied to cross-link protein-glycan interactions via the sulfonyl fluoride group.
To test if small molecule cross-linker could cross-link Siglec-7v with azido-GD3 and azido-lac, 60 μM Siglec-7v was incubated with 2 mM azido-GD3 or azido-lac in PBS buffer, pH 7.4 at room temperature for 1 hr. The solution was treated with or without 0.3 mM NHSF or NHBr or NHFS or NHQM or HoQM at room temperature for 1 hr, respectively. The NHQM or HoQM was then illuminated with or without UV for 15 mins at wavelength 365 nm. After that, 200 μM alkyne-biotin, 0.05 mM CuSO4, 1 mM THPTA and 1 mM sodium ascorbate were added and the reaction mixture was incubated at room temperature in dark environment for 0.5 hours. Samples were then boiled at 95° C. for 5 mins and run Western blot against 6× His tag antibody or streptavidin-horseradish peroxidase (HRP).

[1] = Cross-linking of azido-GD3 by SFY incorporated Siglec-7v in vitro (Western blot); assay type: biochemical; conditions: 60 μM Siglec-7v(127SFY), 2 mM azido-GD3
Method: FIGS. 17A-17D provide a comparative study between NHSF pretreated Siglec-7v (Siglec-7v-SF) and Siglec-7v(127SFY). […] Siglec-7v(127SFY) or Siglec-7v-SF was incubated with azido-GD3 or azido-lac followed with Western blot detection. The azido group was click reacted with alkyne-biotin for Western blot detection of GD3/lac. […] Cells were treated with protein, washed, stained with a fluorescently labeled antibody specific for the His×6 tag appended at the C-terminus of Siglec-7v, and quantified with flow cytometry. […] Pre-stained BT-20 cells were incubated with 12 μM Siglec-7v-SF or Siglec-7v(127SFY) for 2 h. Cells were then washed and incubated with NK-92 cells for 4 h. Cells were stained with propidium iodide and NK cytotoxicity was evaluated by flow cytometry. Control group: no protein treatment. The line and error bar represent mean±SEM; n=3 independent batches of Siglec-7v proteins. *** p<0.001; NS, not significant, multiple t test.
We then determined if SFY could enable Siglec-7v to cross-link the bound glycan ligand. Inspired by NHSF-mediated cross-linking of azido-GD3 through Lys on Siglec-7v protein, we incorporated SFY into individual Lys sites of Siglec-7v, including sites 20, 24, 75, 104, 127, 131, and 135. […] Cross-linking of azido-GD3 was detected for Siglec-7v(104SFY) and Siglec-7v(127SFY). […]

cross-linking of Siglec-7v with azido-GD3 (biotin band slightly above Siglec-7v) (Siglec-7v with azido-GD3): not
SMILES: O=C(ON1C(=O)CCC1=O)c1ccc(OCc2ccccc2[N+](=O)[O-])c(C(F)F)c1 [NHQM]

SMILES: O=C(Cc1ccc(OS(=O)(=O)F)cc1)ON1C(=O)CCC1=O [NHFS, 2,5-dioxopyrrolidin-1-yl 2-(4-((fluorosulfonyl)oxy)-phenyl)acetate]
cross-linking of Siglec-7v with azido-GD3 (biotin band slightly above Siglec-7v) (Siglec-7v with azido-GD3): not

SMILES: CC(=O)N[C@H]1[C@H]([C@H](O)[C@H](O)CO)O[C@@](O[C@H]2[C@@H](O)[C@@H](CO)O[C@@H](O[C@H]3[C@H](O)[C@@H](O)C(O)O[C@@H]3CO)[C@@H]2O)(C(=O)O)C[C@@H]1O (stereo partly shown) [3′-sialyllactose]
effect of added ligand on crosslinking of siglec-7v(127SFY) with azido-GD3 [1]: did not reduce

SMILES: O=C(CCCNC(=O)c1ccc(S(=O)(=O)F)cc1)ON1C(=O)CC(S(=O)(=O)[O-])C1=O.[Na+] (stereo not shown) [NHSF—C3, Sodium 1-((4-(4-(fluorosulfonyl)benzamido)butanoyl)oxy)-2,5-dioxopyrrolidine-3-sulfonate]
cross-linking efficiency on further increase of the linker length (Siglec-7v with azido-GD3; Siglec-7v with azido-GD3): lowered

SMILES: O=C(CCNC(=O)c1ccc(S(=O)(=O)F)cc1)ON1C(=O)CC(S(=O)(=O)[O-])C1=O.[Na+] (stereo not shown) [NHSF—C2, Sodium 1-((3-(4-(fluorosulfonyl)benzamido)propanoyl)oxy)-2,5-dioxopyrrolidine-3-sulfonate]
cross-linking band intensity in comparison with NHSF (Siglec-7v with azido-GD3; Siglec-7v with azido-GD3): 1.5 fold

SMILES: O=C(CCCCCCCNC(=O)c1ccc(S(=O)(=O)F)cc1)ON1C(=O)CC(S(=O)(=O)[O-])C1=O.[Na+] (stereo not shown) [NHSF—C7, sodium 1-((8-(4-(fluorosulfonyl)benzamido)octanoyl)oxy)-2,5-dioxopyrrolidine-3-sulfonate]
cross-linking efficiency on further increase of the linker length (Siglec-7v with azido-GD3; Siglec-7v with azido-GD3): lowered

SMILES: O=C(c1ccc(OCc2ccccc2[N+](=O)[O-])c(C(F)F)c1)N1CCN(C(=O)c2ccc(OCc3ccccc3[N+](=O)[O-])c(C(F)F)c2)CC1 [HoQM]
cross-linking of Siglec-7v with azido-GD3 (biotin band slightly above Siglec-7v) (Siglec-7v with azido-GD3): not
